Data reported in paper PMC9481151, “Discovery of new symmetrical and asymmetrical nitrile-containing 1,4-dihydropyridine derivatives as dual kinases and P-glycoprotein inhibitors: synthesis, in vitro assays, and in silico studies” (Journal of Enzyme Inhibition and Medicinal Chemistry, 2022).

Columns and labels:
CCRF-CEM = experiment: NCI single dose (10 µM) SRB screen; type: cell-based, human; details: leukaemia, 48 h
HL-60(TB) = experiment: NCI single dose (10 µM) SRB screen; type: cell-based, human; details: leukaemia, 48 h
MOLT-4 = experiment: NCI single dose (10 µM) SRB screen; type: cell-based, human; details: leukaemia, 48 h
RPMI-8226 = experiment: NCI single dose (10 µM) SRB screen; type: cell-based, human; details: leukaemia, 48 h
SR = experiment: NCI single dose (10 µM) SRB screen; type: cell-based, human; details: leukaemia, 48 h
A549/ATCC = experiment: NCI single dose (10 µM) SRB screen; type: cell-based, human; details: non-small cell lung cancer, 48 h
NCI-H226 = experiment: NCI single dose (10 µM) SRB screen; type: cell-based, human; details: non-small cell lung cancer, 48 h
NCI-H23 = experiment: NCI single dose (10 µM) SRB screen; type: cell-based, human; details: non-small cell lung cancer, 48 h
NCI-H322M = experiment: NCI single dose (10 µM) SRB screen; type: cell-based; details: non-small cell lung cancer, 48 h
NCI-H460 = experiment: NCI single dose (10 µM) SRB screen; type: cell-based, human; details: non-small cell lung cancer, 48 h
NCI-H522 = experiment: NCI single dose (10 µM) SRB screen; type: cell-based, human; details: non-small cell lung cancer, 48 h
COLO 205 = experiment: NCI single dose (10 µM) SRB screen; type: cell-based, human; details: colon cancer, 48 h
HCT-116 = experiment: NCI single dose (10 µM) SRB screen; type: cell-based, human; details: colon cancer, 48 h
HT29 = experiment: NCI single dose (10 µM) SRB screen; type: cell-based, human; details: colon cancer, 48 h
KM12 = experiment: NCI single dose (10 µM) SRB screen; type: cell-based, human; details: colon cancer, 48 h
SW-620 = experiment: NCI single dose (10 µM) SRB screen; type: cell-based, human; details: colon cancer, 48 h
SF-268 = experiment: NCI single dose (10 µM) SRB screen; type: cell-based, human; details: CNS cancer, 48 h
SF-295 = experiment: NCI single dose (10 µM) SRB screen; type: cell-based, human; details: CNS cancer, 48 h
SF-539 = experiment: NCI single dose (10 µM) SRB screen; type: cell-based, human; details: CNS cancer, 48 h
SNB-19 = experiment: NCI single dose (10 µM) SRB screen; type: cell-based, human; details: CNS cancer, 48 h
SNB-75 = experiment: NCI single dose (10 µM) SRB screen; type: cell-based, human; details: CNS cancer, 48 h
U251 = experiment: NCI single dose (10 µM) SRB screen; type: cell-based, human; details: CNS cancer, 48 h
LOX IMVI = experiment: NCI single dose (10 µM) SRB screen; type: cell-based, human; details: melanoma, 48 h
MALME-3M = experiment: NCI single dose (10 µM) SRB screen; type: cell-based, human; details: melanoma, 48 h
M14 = experiment: NCI single dose (10 µM) SRB screen; type: cell-based, human; details: melanoma, 48 h
MDA-MB-435 = experiment: NCI single dose (10 µM) SRB screen; type: cell-based, human; details: melanoma, 48 h
SK-MEL-28 = experiment: NCI single dose (10 µM) SRB screen; type: cell-based, human; details: melanoma, 48 h
SK-MEL-5 = experiment: NCI single dose (10 µM) SRB screen; type: cell-based, human; details: melanoma, 48 h
UACC-257 = experiment: NCI single dose (10 µM) SRB screen; type: cell-based, human; details: melanoma, 48 h
IGROV1 = experiment: NCI single dose (10 µM) SRB screen; type: cell-based, human; details: ovarian cancer, 48 h
OVCAR-3 = experiment: NCI single dose (10 µM) SRB screen; type: cell-based, human; details: ovarian cancer, 48 h
OVCAR-4 = experiment: NCI single dose (10 µM) SRB screen; type: cell-based, human; details: ovarian cancer, 48 h
OVCAR-5 = experiment: NCI single dose (10 µM) SRB screen; type: cell-based, human; details: ovarian cancer, 48 h
OVCAR-8 = experiment: NCI single dose (10 µM) SRB screen; type: cell-based, human; details: ovarian cancer, 48 h
NCI/ADR-RES = experiment: NCI single dose (10 µM) SRB screen; type: cell-based, human; details: ovarian cancer, 48 h
SK-OV-3 = experiment: NCI single dose (10 µM) SRB screen; type: cell-based, human; details: ovarian cancer, 48 h
786-0 = experiment: NCI single dose (10 µM) SRB screen; type: cell-based, human; details: renal cancer, 48 h
A498 = experiment: NCI single dose (10 µM) SRB screen; type: cell-based, human; details: renal cancer, 48 h
ACHN = experiment: NCI single dose (10 µM) SRB screen; type: cell-based, human; details: renal cancer, 48 h
CAKI-1 = experiment: NCI single dose (10 µM) SRB screen; type: cell-based, human; details: renal cancer, 48 h
RXF 393 = experiment: NCI single dose (10 µM) SRB screen; type: cell-based, human; details: renal cancer, 48 h
SN12C = experiment: NCI single dose (10 µM) SRB screen; type: cell-based, human; details: renal cancer, 48 h
TK-10 = experiment: NCI single dose (10 µM) SRB screen; type: cell-based, human; details: renal cancer, 48 h
PC-3 = experiment: NCI single dose (10 µM) SRB screen; type: cell-based, human; details: prostate cancer, 48 h
DU-145 = experiment: NCI single dose (10 µM) SRB screen; type: cell-based, human; details: prostate cancer, 48 h
MCF7 = experiment: NCI single dose (10 µM) SRB screen; type: cell-based, human; details: breast cancer, 48 h
MDA-MB-468 = experiment: NCI single dose (10 µM) SRB screen; type: cell-based, human; details: breast cancer, 48 h
NCI 60 cancer cell lines = experiment: NCI single dose (10 µM) SRB screen, mean over panel; type: cell-based, human; details: mean over 60 cell lines, 48 h
Staphylococcus aureus = experiment: Agar well diffusion method
Bacillus subtilis = experiment: Agar well diffusion method
Escherichia coli = experiment: Agar well diffusion method
Aspergillus flavus = experiment: Agar well diffusion method

CCOC(=O)C1=C(C)NC(C)=C(C(=O)OCCOC)C1c1cccc(C#N)c1 (racemic) [Compound 2k, (±)-3-Ethyl 5-(2-methoxyethyl) 4-(3-cyanophenyl)-2,6-dimethyl-1,4-dihydropyridine-3,5-dicarboxylate]
GI% CCRF-CEM (CCRF-CEM): – (Only GI% ≥ 10 are shown) | GI% HL-60(TB) (HL-60(TB)): 12% | GI% MOLT-4 (MOLT-4): – (Only GI% ≥ 10 are shown) | GI% RPMI-8226 (RPMI-8226): – (Only GI% ≥ 10 are shown) | GI% SR (SR): 13% | GI% A549/ATCC (A549/ATCC): – (Only GI% ≥ 10 are shown) | GI% NCI-H226 (NCI-H226): – (Only GI% ≥ 10 are shown) | GI% NCI-H23 (NCI-H23): – (Only GI% ≥ 10 are shown) | GI% NCI-H322M (NCI-H322M): – (Only GI% ≥ 10 are shown) | GI% NCI-H460 (NCI-H460): – (Only GI% ≥ 10 are shown) | GI% NCI-H522 (NCI-H522): – (Only GI% ≥ 10 are shown) | GI% COLO 205 (COLO 205): – (Only GI% ≥ 10 are shown) | GI% HCT-116 (HCT-116): – (Only GI% ≥ 10 are shown) | GI% HT29 (HT29): – (Only GI% ≥ 10 are shown) | GI% KM12 (KM12): – (Only GI% ≥ 10 are shown) | GI% SW-620 (SW-620): – (Only GI% ≥ 10 are shown) | GI% SF-268 (SF-268): – (Only GI% ≥ 10 are shown) | GI% SF-295 (SF-295): – (Only GI% ≥ 10 are shown) | GI% SF-539 (SF-539): – (Only GI% ≥ 10 are shown) | GI% SNB-19 (SNB-19): – (Only GI% ≥ 10 are shown) | GI% SNB-75 (SNB-75): – (Only GI% ≥ 10 are shown) | GI% U251 (U251): – (Only GI% ≥ 10 are shown) | GI% LOX IMVI (LOX IMVI): – (Only GI% ≥ 10 are shown) | GI% MALME-3M (MALME-3M): – (Only GI% ≥ 10 are shown) | GI% M14 (M14): – (Only GI% ≥ 10 are shown) | GI% MDA-MB-435 (MDA-MB-435): – (Only GI% ≥ 10 are shown) | GI% SK-MEL-28 (SK-MEL-28): – (Only GI% ≥ 10 are shown) | GI% SK-MEL-5 (SK-MEL-5): – (Only GI% ≥ 10 are shown) | GI% UACC-257 (UACC-257): – (Only GI% ≥ 10 are shown) | GI% IGROV1 (IGROV1): – (Only GI% ≥ 10 are shown) | GI% OVCAR-3 (OVCAR-3): – (Only GI% ≥ 10 are shown) | GI% OVCAR-4 (OVCAR-4): – (Only GI% ≥ 10 are shown) | GI% OVCAR-5 (OVCAR-5): – (Only GI% ≥ 10 are shown) | GI% OVCAR-8 (OVCAR-8): – (Only GI% ≥ 10 are shown) | GI% NCI/ADR-RES (NCI/ADR-RES): – (Only GI% ≥ 10 are shown) | GI% SK-OV-3 (SK-OV-3): – (Only GI% ≥ 10 are shown) | GI% 786-0 (786-0): – (Only GI% ≥ 10 are shown) | GI% A498 (A498): 21% | GI% ACHN (ACHN): – (Only GI% ≥ 10 are shown) | GI% CAKI-1 (CAKI-1): – (Only GI% ≥ 10 are shown) | GI% RXF 393 (RXF 393): – (Only GI% ≥ 10 are shown) | GI% SN12C (SN12C): – (Only GI% ≥ 10 are shown) | GI% TK-10 (TK-10): – (Only GI% ≥ 10 are shown) | GI% PC-3 (PC-3): – (Only GI% ≥ 10 are shown) | GI% DU-145 (DU-145): – (Only GI% ≥ 10 are shown) | GI% MCF7 (MCF7): – (Only GI% ≥ 10 are shown) | GI% MDA-MB-468 (MDA-MB-468): – (Only GI% ≥ 10 are shown) | Mean GI% (NCI 60 cancer cell lines): −1% | zone of inhibition at 1000 µg/mL (Staphylococcus aureus; Staphylococcus aureus, 24 h, read-out: Diameter of inhibition zone, S. aureus): 17 mm | % activity index, S. aureus (Staphylococcus aureus; relative to ciprofloxacin): 70.8% | zone of inhibition at 1000 µg/mL (Bacillus subtilis; Bacillus subtilis, 24 h, read-out: Diameter of inhibition zone, B. subtilis): 13 mm | % activity index, B. subtilis (Bacillus subtilis; relative to ciprofloxacin): 56.5% | zone of inhibition at 1000 µg/mL (Escherichia coli; Escherichia coli, 24 h, read-out: Diameter of inhibition zone, E. coli): 15 mm | % activity index, E. coli (Escherichia coli; relative to ciprofloxacin): 57.7% | zone of inhibition at 1000 µg/mL (Aspergillus flavus; Aspergillus flavus, 24 h, read-out: Diameter of inhibition zone, A. flavus): 18 mm | % activity index, A. flavus (Aspergillus flavus; relative to clotrimazole): 72%
